Results reported in US20180153952A1, “COMPOSITIONS AND METHODS FOR TREATING POST OPERATIVE COGNITIVE DYSFUNCTION AND NEUROIN[…] ANNEXIN A1 (ANXA1) PEPTIDES” (Duke University, priority 2016, published 2018).
Entries after “also recorded” stand apart in the source; their conditions may differ.

Tests used:
MPO = test: Plasma/systemic MPO levels after orthopedic surgery; format: in vivo, mice
Excerpt: (§1) Systemic cytokines, including IL-6, are found elevated in patients developing delirium and POCD and may serve as potential biomarkers. […] N=4-5 (adult), N=1-5 (aged); **P<0.01. Two-way ANOVA with Multiple Comparisons.

citrate synthetase (CS) = test: Hippocampus citrate synthetase (CS, Western blot) after orthopedic surgery; format: in vivo; settings: mice (13 weeks) after orthopedic surgery
Description: Male C57BL/6 mice (13 weeks) were subjected to orthopedic surgery while naïve animals were as baseline-control. At 3, 6, and 24 hours of post-surgery, the hippocampus CS was determined by Western blot (FIG. 24A) and (FIG. 24B). […] Data are presented as mean±SD. N=4; **P<0.01, ***P<0.001, ****P<0.0001. One-way ANOVA with Multiple Comparisons.

[1] = tested on: hippocampal ATP production; test: Hippocampal ATP production (ELISA) after orthopedic surgery; format: in vivo; settings: mice (13 weeks) after orthopedic surgery
Description: (§2) Male C57BL/6 mice (13 weeks) were subjected to orthopedic surgery. Naïve animals (no surgery at 0 hour) were used as baseline-control. At 3, 6, and 24 hours of post-surgery, the total OXPHOS in hippocampus was determined by Western blot (FIG. 23A) and (FIG. 23B). Time-dependent increased hippocampal ATP production were determined by ELISA (FIG. 23C). […] Data are presented as mean±SD. N=4; **P<0.01, ***P<0.001. One-way ANOVA with Multiple Comparisons.

[2] = tested on: cerebral microglia activation; test: Microglia activation after orthopedic surgery (F4/80 immunostaining, stereological analysis); format: in vivo; settings: mice after orthopedic surgery, ANXA1sp 1 mg/kg 1 hr before surgery, 24 hr post-surgery, F4/80 positive cells, vs untreated animals
Description: Male C57BL/6 mice (12 weeks) were subjected to orthopedic surgery and treated with ANXA1sp (1 mg/kg) 1 hr before surgery. At 24 hr of post-surgery, brain levels of microglia activation was determined by immunostaining with a biomarker F4/80. Stereological analysis of F4/80 positive cells was shown in the bar graph. N=5 (Naïve), 10 (Surgery), and 4 (ANXA1sp). Data are presented as mean+SD. **P<0.01 vs. Naïve; #P<0.05 vs. Surgery. One-way ANOVA with Multiple Comparisons. (FIG. 13).

IL-6 = test: Systemic IL-6 after orthopedic surgery; format: in vivo; settings: mice after orthopedic surgery
Excerpt: as §1

NLRP3 inflammasome = test: NLRP3 expression/inflammasome activation in hippocampus after orthopedic surgery (Western blot); format: in vivo, mice; settings: for NLRP3 activation: ANXA1sp 1 mg/kg 30 min before surgery
Description: (§3) Representative Western Blot images in adult (12 weeks-old) and aged (20 months-old) C57BL/6 mice for NLRP3 (FIG. 18A), Caspase-1 (FIG. 18C), and IL1β (FIG. 18E) (three key components of the inflammasome complex) and quantification. […] Data are presented as mean±SD. […] One-way ANOVA with Multiple Comparisons.
Male C57BL/6 mice received ANXA1sp (1 mg/kg) 30 min before surgery. […] Data are presented as mean±SD. […] Two-way ANOVA with Multiple Comparisons.

IL-1β = IL-1β secretion in hippocampus after orthopedic surgery (Western blot); format: in vivo, mice
Description: as §3
(§4) Male C57BL/6 mice received ANXA1sp (1 mg/kg) 30 min before surgery. Representative blots of Caspase-1 activation and IL1β secretion. […] Data are presented as mean±SD. N=4-5; *P<0.05, **P<0.01, ***P<0.001. Two-way ANOVA with Multiple Comparisons.

ANXA1 = test: Hippocampal/brain ANXA1 levels after orthopedic surgery; format: in vivo, mice
Excerpt: Surgery reduced levels of endogenous ANXA1 in the brain at 24 hr (FIG. 25A, FIG. 25B for quantification). […] N=3-4; **P<0.01, ***P<0.001. One-way ANOVA with Multiple Comparisons.

[3] = tested on: OXPHOS mitochondrial electron transport chain complexes; test: Hippocampal total OXPHOS (Western blot) after orthopedic surgery; format: in vivo; settings: mice (13 weeks) after orthopedic surgery
Description: as §2

SIRT3 = test: Hippocampal mitochondrial SIRT3 expression after orthopedic surgery; format: in vivo; settings: mice after orthopedic surgery, time-dependent
memory function = test: "What-when-where" task of object recognition memory after orthopedic surgery; format: in vivo, mice
Excerpt: After orthopedic surgery mice have reduced preferences for the replacement of objects (what), and for the original location of the displaced object (where); but they show a […] preference the order of presentation (when). […] Data are presented as mean±SD. N=10. *P<0.05 and **P<0.01 vs. surgery+vehicle using MANOVA. (FIG. 17).

Caspase-1 = Caspase-1 activation in hippocampus after orthopedic surgery (Western blot); format: in vivo, mice
Description: as §3, §4

[4] = brain (hippocampus) of mice after orthopedic surgery

Ac-Gln-Ala-Trp [ANXA1sp]
plasma levels of meloperoxidase (MPO) (MPO; mice after orthopedic surgery, time-dependent): reduced; also recorded: significantly decreased | systemic levels of MPO (MPO; mice, 24 hr after orthopedic surgery, listed as ANXA-1sp): reduced | numbers of CS (citrate synthetase, biomarker of numbers of mitochondria) (citrate synthetase (CS)): significantly increased | hippocampal ATP production [1]: attenuated | cerebral microglia activation [2]: significantly attenuated | systemic IL-6 (IL-6): significantly reduced | systemic IL-6 (IL-6; listed as ANXA-1sp): reduced | NLRP3 activation (NLRP3 inflammasome; adult and aged mice, 24 hr after surgery): significantly reduced | NLRP3 activation (NLRP3 inflammasome; aged mice, 6 hr after surgery): significantly reduced | NLRP3 expression or NLRP3 inflammasome activation (NLRP3 inflammasome; [4]): inhibits; also recorded: significant inhibition; also recorded: reduces | secreted IL1β (IL-1β; adult mice after surgery, ANXA1sp 1 mg/kg 30 min before surgery): no significance | activation of IL-1β (IL-1β; [4]): significantly inhibited | levels of ANXA-1 in the brain (ANXA1; 24 hr after surgery, 1 mg/kg ANXA1sp): significantly increase | hippocampal ANXA1 levels (ANXA1; mice after orthopedic surgery): significantly increased | hippocampal total OXPHOS, particularly complex IV [3]: significantly regulated | hippocampal mitochondrial SIRT3 expression/activation (SIRT3): significantly increases/activates; also recorded: significantly higher expression | memory deficits (what-when-where object recognition preference scores) (memory function; mice after orthopedic surgery, vs surgery+vehicle): significantly improves | exploration of the displaced/replaced object (memory function; surgery+ANXA1sp mice, vs original anchor object and two most recently seen objects): greater exploration | levels of Caspase-1 (Caspase-1; adult and aged mice after surgery, ANXA1sp 1 mg/kg 30 min before surgery): significantly reduced | activation of caspase-1 (Caspase-1; [4]): significantly inhibited
